Test: Agilent ZORBAX 300 SB-C18, 150 × 1 mm, 3.5 µm; A: water + 0.01% heptafluorobutyric acid; B: acetonitrile + 0.01% heptafluorobutyric acid; gradient (min/%B) 0/0 100/90
Details: stereoisomer not certain

Compound | LC retention time [min]
CN(C)CC(C)(C)CO | 6.43
CC(=O)NC(NC(C)=O)NC(C)=O | 1.91
CCCCCC(N)=O | 8.31
CCn1cc(-c2ccn[nH]2)c(C)n1 | 8.21
CN1CCOC1=O | 3.96
CC1CNCC(C)N1 (stereo not drawn) | 6.7
CCCCC(N)=O | 6.86
COc1cc(C2ON=C(CN3CCOCC3)C2C)c(OC)c2c1OCO2 (stereo not drawn) | 9.6
Cc1ccnc(=O)[nH]1 | 2.97
CCNc1cc(C)ccc1O | 7.6
CCN(CCCc1ccccc1)CCCc1ccccc1 | 12.5
CNCc1cccs1 | 7
Cc1ccccc1-n1c(O)c(C=C2C=Nc3ccccc32)c(=O)n(-c2ccccc2C)c1=O | 15.9
COc1ccc(C2=C(N)C(=O)NC2=O)cc1OC | 8.69
CCCCCCCCCCCCN(C)C | 13.7
Cn1c(=O)c2c(-c3ccccc3)n(Cc3ccccc3)cc2n(C)c1=O | 14.3
CC(CCc1ccccc1)NCC(O)c1ccc(O)c(C(N)=O)c1 (stereo not drawn) | 10
CC(CC(=O)Nc1ccc(Nc2ccccc2)cc1)=NNC(=O)Cc1ccccc1 | 13.1
COc1cc(CCN)cc(OC)c1OC | 8.22
O=c1[nH][nH]c(=O)c2nccnc12 | 3.97
CCCCNCC(=O)Nc1ccc(NC(=O)CNCCCC)cc1 | 8.26
NCc1cccc(CN)c1 | 7.04
Cc1ccc2c(CN3CCNCC3)cc(=O)oc2c1 | 8.81
CCCNC1CCN(C(C)=O)CC1 | 6.77

Compound | LC retention time [min]
C1=CCNC1 | 2.99
O=c1c2ccccc2nc(-c2ccccc2)n1-c1ccccc1 | 13.8
Nc1ccc(NC(=O)c2cccc(C(=O)Nc3ccc(N)cc3)c2)cc1 | 7.98
Cc1cc(C=O)c(C)n1C1CCCCC1 | 14.4
CCN(CC)CCCO | 6.01
CNc1ccncc1 | 6.54
O=C1CC(N2CCN(C3CC(=O)N(CCc4ccccc4)C3=O)CC2)C(=O)N1CCc1ccccc1 (stereo not drawn) | 12.4
CC(=O)c1c(C(C)=O)c(C)n(C)c1C | 8.65
COc1ccc(Cc2c(O)n(-c3ccccc3)c(=O)[nH]c2=O)c(OC)c1 | 11.6
CCCNCc1ccc2c(c1)n(C)c(=O)n2C | 7.81
CC1(C)OCOC1=CC[N+](C)(C)C | 7.65
CN(C)C1CCCCC1 | 7.57
CC(C)(CO)Nc1c[nH]c(=O)[nH]c1=O | 6.01
COc1ccc(-n2c(O)c(Cc3ccc(OC)c(OC)c3)c(=O)[nH]c2=O)cc1 | 10.7
S=C1N=C2CCCCC2C2(CCCCC2)N1 (stereo not drawn) | 11.6
CC(=O)Nc1ccc(O)c(NC(C)=O)c1 | 6.39
Cc1ccc(OCCOCn2c(C)cc(=O)[nH]c2=O)cc1 | 11
CCc1ccc(C=NNC(=O)C[n+]2ccccc2)cc1 | 9.72
O=C1NC(O)C(O)N1 (stereo not drawn) | 1.42
Cn1c(O)c(Cc2ccc(OCc3ccccc3)cc2)c(=O)n(C)c1=O | 15
CC(C)CN | 6.34
CCC(N)CC | 7.05
CCN(CCCCOC(=O)c1ccc(OC)c(OC)c1)C(C)Cc1ccc(OC)cc1 (stereo not drawn) | 11.9
Cc1cccc(NC(N)=S)n1 | 8.81

Now from value to compound:

LC retention time [min] | Compound
7.8 | Nc1nc(=O)n2c(n1)oc1ccccc12
12.9 | O=C(C=Cc1ccccc1)c1ccc(O)cc1
13.9 | COc1ccc2c(c1)C(C)N1C(=O)c3ccccc3C1O2 (stereo not drawn)
13 | Cc1cc(C=O)c(C)n1-c1ccccc1
17.2 | CCOc1ccc(C(c2c[nH]c3ccccc23)c2c[nH]c3ccccc23)cc1
10.5 | CCCC(=O)Nc1cccc(C(=O)Nc2ccc(C(=O)O)cc2)c1
10.5 | CC(NC(=O)c1ccc(CN2CCc3ccccc3C2)cc1)c1ccccc1 (stereo not drawn)
11.7 | CNCCCC12CCC(c3ccccc31)c1ccccc12
12.4 | COC(=O)C1C2CC3c4[nH]c5cc(OC)ccc5c4CCN3CC2CC(OC(=O)c2cc(OC)c(OC)c(OC)c2)C1OC (stereo not drawn)
15.7 | CC=CC=CC(=O)Nc1ccc(C=CC(=O)c2ccccc2)cc1
10.1 | Cc1cccc2c1N(C)C(=O)C2=O
12.4 | c1ccc(N=c2scc(-c3ccccc3)n2-c2ccccc2)cc1
13.6 | COC(=O)c1nnc(-c2ccccc2)c(-c2ccccc2)n1
8.37 | C(=NNc1nncc2ccccc12)c1cccnc1
9.08 | Cc1[nH]c2ccccc2c1CCNC(N)=O
17.5 | COc1ccc2ccccc2c1C=NNC(=O)C(c1ccccc1)c1ccccc1
16.8 | Cc1ccc2[nH]c(-c3ccccc3)cc2c1
12.1 | S=c1[nH]c2ccccc2c2c1CCC2
10.2 | O=C(CCN1C(=O)c2ccccc2C1=O)NCc1ccco1
9.23 | Cc1nc(N=C(N)N)nc2c(C)cccc12
8.55 | Cc1ccc2cc(C)c(NCc3cccnc3)nc2c1
10.5 | O=c1nc(N2CCOCC2)nc(N(c2ccccc2)c2ccccc2)[nH]1
11.6 | O=C(O)c1ccc2[nH]c3c(c2c1)CCCC3

LC retention time [min] | Compound
7.47 | O=C(O)Cc1c(C(=O)O)[nH]c2cc(C(=O)O)ccc12
12.3 | COc1cccc2c1NC(C)(C)CC2C (stereo not drawn)
12.2 | COC(=O)Nc1nc2ccc(Sc3ccccc3)cc2[nH]1
8.08 | CNCCOc1ccccc1
8.61 | CCN1C(=O)C2C(C)NC3(C(=O)Nc4ccccc43)C2C1=O (stereo not drawn)
19.6 | CCCCCCCCCCNC(=S)Nc1ccccc1
6.54 | O=C(O)C1Cc2ccccc2CN1 (stereo not drawn)
15.6 | CCCCCCCCCCn1c(CCC)nc2ccccc21
1.56 | O=C1CCC(=O)N1c1ccc(S(=O)(=O)O)cc1
8.37 | CN(C)C(=O)Nc1ccccc1
11.8 | CCn1c(-c2ccccc2)nn(CN2CCCC2)c1=S
13.3 | Cc1ccc(-c2cc(C(=O)O)c3ccccc3n2)cc1C
7.3 | O=C(O)Cn1cnc2ccccc2c1=O
7.26 | c1ccc2c(c1)CCN2
7.87 | Nc1cccc(C2OCCCO2)c1
12.5 | Cc1[nH]c(C)c(C(=O)c2ccccc2)c1C
10 | Cn1c(=N)n(CC(=O)c2ccccc2)c2ccccc21
11.9 | O=C(O)CCc1ccc(-c2ccccc2)[nH]1
9.45 | CC1(c2ccccc2)OCOC1=CC[N+](C)(C)C (stereo not drawn)
10.6 | Cc1ccc(-c2cc(C)c(C)cc2C)nc1
8.71 | CN(C)CCCNCc1ccc2[nH]c3c(c2c1)CCCC3
9.96 | Nc1ccc(C=C(C(=O)O)c2ccccc2)cc1
